The source of these data is patent publication US11345666B2, “Phenyl and pyridinyl substituted imidazoles as modulators of RORγT” (Janssen Pharmaceutica NV, priority 2018, dated 2022).

The structures appear in SMILES notation. Like-named read-outs stand apart in the source and are kept apart here. Marks after values point to notes of the source that are not given here.

For assay [1], the target named is human RORγt ligand binding domain (RORγt LBD) (Homo sapiens (Human), UniProt P51449). Put plainly: RORγt ThermoFluor assay. The method in brief: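 Thermal shift of His-tagged human RORγt LBD (0.065 mg/mL) with 60 μM 1,8-ANS in 100 mM Hepes pH 7.0, 10 mM NaCl, 2.5 mM GSH, 0.002% Tween-20, heated at 1° C./min. Compounds in 1:2 series from a 10 mM DMSO stock; KD estimated from ΔTm using protein unfolding thermodynamics.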
(In general: DSF heats the sample and reads unfolding from a dye or from intrinsic fluorescence.)

The target in assay [2] is full-length human RORγt (Homo sapiens (Human), UniProt P51449). The assay can be described thus: RORγt (full-length human) reporter assay, conditions A or B. It counts as cell-based. The conditions noted are these: for IC50: HEK293T cells, read-out: RORγt (FL) Reporter Assay A or B, IC50; for inhibition at 6 µM: read-out: RORγt (FL) Reporter Assay A or B, % inhibition @ 6 μM, 6 μM compound concentration; for inhibition at 0.67 µM: 0.67 μM compound concentration (****); for inhibition at 2 µM: 2 μM compound concentration (**); for inhibition at 1 µM: 1 μM compound concentration (***). The essentials: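 HEK293T cells transiently co-transfected (PEI) with GAL4-DBD–RORγt, GAL4-firefly luciferase and CMV-Renilla reporters; condition A 35,000 cells/well, 170.5 ng DNA/well; condition B 8750 cells/well, 42.6 ng DNA/well.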

Setting [3] is: read-out: RORγt (FL) Reporter Assay A or B, % inhibition.
Where [4] appears, read: read-out: RORγt (FL) Reporter Assay A or B, % inhibition, 3 μM compound concentration (*).

Chain of full-length human RORγt (P51449 other isoform, or with tags, fused parts or gaps): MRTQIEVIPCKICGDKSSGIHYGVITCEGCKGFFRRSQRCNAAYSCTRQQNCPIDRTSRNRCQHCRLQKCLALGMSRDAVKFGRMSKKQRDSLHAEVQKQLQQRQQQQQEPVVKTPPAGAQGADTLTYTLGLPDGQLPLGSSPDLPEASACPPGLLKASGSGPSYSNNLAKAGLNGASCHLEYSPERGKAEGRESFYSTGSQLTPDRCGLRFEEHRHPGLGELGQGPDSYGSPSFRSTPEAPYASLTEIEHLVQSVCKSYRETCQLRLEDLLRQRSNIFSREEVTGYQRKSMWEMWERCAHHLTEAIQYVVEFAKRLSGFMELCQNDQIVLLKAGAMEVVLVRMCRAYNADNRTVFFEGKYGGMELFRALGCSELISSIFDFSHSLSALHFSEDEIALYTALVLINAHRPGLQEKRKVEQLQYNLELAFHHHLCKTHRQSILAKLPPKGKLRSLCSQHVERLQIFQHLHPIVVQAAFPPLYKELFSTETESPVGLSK
Chain of human RORγt ligand binding domain (RORγt LBD) (P51449 other isoform, or with tags, fused parts or gaps): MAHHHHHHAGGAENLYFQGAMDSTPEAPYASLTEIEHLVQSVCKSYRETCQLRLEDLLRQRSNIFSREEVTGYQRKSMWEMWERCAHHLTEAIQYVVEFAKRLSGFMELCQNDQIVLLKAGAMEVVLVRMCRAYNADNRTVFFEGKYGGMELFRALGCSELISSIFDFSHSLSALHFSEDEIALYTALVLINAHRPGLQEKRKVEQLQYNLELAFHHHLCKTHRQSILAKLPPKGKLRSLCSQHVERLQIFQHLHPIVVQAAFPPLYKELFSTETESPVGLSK

In general, Kd refers to a measure of binding affinity in units of concentration. A higher Kd goes with a looser complex. In general, IC50 refers to the concentration at which inhibition is half-maximal. For the molecule `CCc1nc(C(=O)NC[C@]2(O)CC[C@@H](S(C)(=O)=O)CC2)c(C#N)n1-c1ccc(CCC(F)(F)F)cc1OC(F)(F)F` [Example 114, 5-Cyano-2-ethyl-N-(((1s,4s)-1-hydroxy-4-(methylsulfonyl)cyclohexyl)methyl)-1-(2-(trifluoromethoxy)-4-(3,3,3-trifluoropropyl)phenyl)-1H-imidazole-4-carboxamide], in assay [1], the Kd was 0.11 µM. In assay [2], the half-inhibitory concentration (IC50) worked out at 0.66 µM and the inhibition at 6 µM worked out at 66%.

The molecule `CCc1nc(C(=O)NC[C@H]2CC[C@H](S(C)(=O)=O)CC2)c(C#N)n1-c1ncc(CCC(F)(F)F)cc1OC` [Example 119, 5-Cyano-2-ethyl-1-(3-methoxy-5-(3,3,3-trifluoropropyl)pyridin-2-yl)-N-(((1r,4r)-4-(methylsulfonyl)cyclohexyl)methyl)-1H-imidazole-4-carboxamide] had a Kd in assay [1] of 0.19 µM. Further, in assay [2], the half-maximal inhibitory concentration (IC50) was found to be 0.72 µM and the inhibition at 6 µM amounted to 96%.

In assay [1], `C#Cc1c(C(=O)NC[C@H]2CC[C@H](S(C)(=O)=O)CC2)nc(CC)n1-c1ccc(CC(C)(C)C(F)(F)F)cc1OC(F)F` [Example 41, 1-(2-(Difluoromethoxy)-4-(3,3,3-trifluoro-2,2-dimethylpropyl)phenyl)-2-ethyl-5-ethynyl-N-(((1r,4r)-4-(methylsulfonyl)cyclohexyl)methyl)-1H-imidazole-4-carboxamide] gave an equilibrium dissociation constant (Kd) of 0.00019 µM. Besides, the inhibition at 0.67 µM in assay [2] (setting [3]) was found to be 106%. Moreover, in assay [2], the IC50 turned out to be 0.0027 µM.

In assay [1], `CCc1nc(C(=O)NC[C@@H]2CC[C@@H](S(C)(=O)=O)C[C@H]2O)c(Cl)n1-c1ncc(CC(C)(C)C(F)(F)F)cc1OC(F)F` (single isomer, unassigned) [Example 59, 5-Chloro-1-(3-(difluoromethoxy)-5-(3,3,3-trifluoro-2,2-dimethylpropyl)pyridin-2-yl)-2-ethyl-N-(((1S*,2R*,4R*)-2-hydroxy-4-(methylsulfonyl)cyclohexyl)methyl)-1H-imidazole-4-carboxamide] gave a Kd of 0.012 µM. For the same molecule, the IC50 in assay [2] was 0.065 µM. For the same molecule, the inhibition at 3 µM in assay [2] (setting [4]) was found to be 104%.

`CCc1nc(C(=O)NC[C@H]2CC[C@H](S(C)(=O)=O)CC2)c(C#N)n1-c1ccc(CCC(F)(F)F)cc1F` [Example 93, 5-Cyano-2-ethyl-1-(2-fluoro-4-(3,3,3-trifluoropropyl)phenyl)-N-(((1r,4r)-4-(methylsulfonyl)cyclohexyl)methyl)-1H-imidazole-4-carboxamide]: the equilibrium dissociation constant (Kd) in assay [1] turned out to be 0.093 µM. Also, in assay [2] (setting [3]), the inhibition at 2 µM amounted to 65%. Further, the IC50 in assay [2] was 0.33 µM.

`CCc1nc(C(=O)NC[C@H]2CC[C@H](S(C)(=O)=O)CC2)c(C#N)n1-c1ncc(CC(C)(C)C(F)(F)F)cc1OC` [Example 122, 5-Cyano-2-ethyl-1-(3-methoxy-5-(3,3,3-trifluoro-2,2-dimethylpropyl)pyridin-2-yl)-N-(((1r,4r)-4-(methylsulfonyl)cyclohexyl)methyl)-1H-imidazole-4-carboxamide] yielded an equilibrium dissociation constant (Kd) in assay [1] of 0.012 µM. The inhibition at 2 µM in assay [2] (setting [3]) turned out to be 101%. Moreover, in assay [2], the half-maximal inhibitory concentration (IC50) was 0.048 µM.

For the molecule `CCc1nc(C(=O)NC[C@]2(O)CC[C@@H](S(C)(=O)=O)CC2)c(Cl)n1-c1ccc(CC(C)C)cc1OC` (single isomer, unassigned) [Example 92, 5-Chloro-2-ethyl-N-(((1s,4S)-1-hydroxy-4-(methylsulfonyl)cyclohexyl)methyl)-1-((R*)-4-isobutyl-2-methoxyphenyl)-1H-imidazole-4-carboxamide], the Kd in assay [1] was 0.00028 µM. In addition, in assay [2], the IC50 turned out to be 0.007 µM and the inhibition at 6 µM was 72%.

`CCc1nc(C(=O)NC[C@]2(O)CC[C@@H](S(C)(=O)=O)CC2)c(C)n1-c1ncc(CC(C)(C)C(F)(F)F)cc1OC` [Example 127, 2-Ethyl-N-(((1s,4s)-1-hydroxy-4-(methylsulfonyl)cyclohexyl)methyl)-1-(3-methoxy-5-(3,3,3-trifluoro-2,2-dimethylpropyl)pyridin-2-yl)-5-methyl-1H-imidazole-4-carboxamide] displayed a Kd in assay [1] of 0.021 µM. In assay [2], the IC50 was 0.14 µM and the inhibition at 6 µM is 98%.

Molecule `CCc1nc(C(=O)NC[C@H]2CC[C@H](S(C)(=O)=O)CC2)c(Cl)n1-c1ncc(C[C@@H](C)C(F)(F)F)cc1OC(F)F` (single isomer, unassigned) [Example 78, 5-Chloro-1-(3-(difluoromethoxy)-5-((R*)-3,3,3-trifluoro-2-methylpropyl)pyridin-2-yl)-2-ethyl-N-(((1r,4R)-4-(methylsulfonyl)cyclohexyl)methyl)-1H-imidazole-4-carboxamide] returned a Kd in assay [1] of 0.007 µM. Moreover, the inhibition at 1 µM in assay [2] (setting [3]) came out at 94%. The half-maximal inhibitory concentration (IC50) in assay [2] was 0.096 µM.

As to `CCc1nc(C(=O)NC[C@]2(O)CC[C@@H](S(C)(=O)=O)CC2)c(Cl)n1-c1ncc(C[C@H](C)C(F)(F)F)cc1OC(F)F` (single isomer, unassigned) [Example 71, 5-Chloro-1-(3-(difluoromethoxy)-5-((S*)-3,3,3-trifluoro-2-methylpropyl)pyridin-2-yl)-2-ethyl-N-(((1s,4R)-1-hydroxy-4-(methylsulfonyl)cyclohexyl)methyl)-1H-imidazole-4-carboxamide], in assay [1], binding was characterised by a dissociation constant (Kd) of 0.028 µM. Besides, the inhibition at 3 µM in assay [2] (3 μM compound concentration (*), read-out: RORγt (FL) Reporter Assay A or B, % inhibition) was found to be 90%. For the same molecule, in assay [2], the IC50 came to 0.16 µM.

As for `C#Cc1c(C(=O)NC[C@]2(C#N)CC[C@@H](S(C)(=O)=O)CC2)nc(CC)n1-c1ccc(CC(C)(C)C(F)(F)F)cc1OC(F)F` [Example 39, N-(((1s*,4s*)-1-Cyano-4-(methylsulfonyl)cyclohexyl)methyl)-1-(2-(difluoromethoxy)-4-(3,3,3-trifluoro-2,2-dimethylpropyl)phenyl)-2-ethyl-5-ethynyl-1H-imidazole-4-carboxamide], in assay [1], the Kd stood at 0.00042 µM. Also, in assay [2] (setting [3]), the inhibition at 0.67 µM came out at 101%. For the same molecule, in assay [2], the IC50 was 0.0079 µM.

Take `CCc1nc(C(=O)NC[C@]2(O)CC[C@@H](S(C)(=O)=O)CC2)c(C#N)n1-c1ccc(CC(C)(C)C(F)(F)F)cc1OC(F)F` [Example 24, 5-Cyano-1-(2-(difluoromethoxy)-4-(3,3,3-trifluoro-2,2-dimethylpropyl)phenyl)-2-ethyl-N-(((1s,4s)-1-hydroxy-4-(methylsulfonyl)cyclohexyl)methyl)-1H-imidazole-4-carboxamide]: in assay [1], binding was characterised by a dissociation constant (Kd) of 0.0053 µM. Besides, in assay [2], the concentration for half-maximal inhibition (IC50) turned out to be 0.033 µM and the inhibition at 6 µM was 104%.

For `CCc1nc(C(=O)NC[C@]2(C#N)CC[C@@H](S(C)(=O)=O)CC2)c(C#N)n1-c1ncc(CC(C)(C)C(F)(F)F)cc1OC` [Example 124, 5-Cyano-N-(((1s*,4s*)-1-cyano-4-(methylsulfonyl)cyclohexyl)methyl)-2-ethyl-1-(3-methoxy-5-(3,3,3-trifluoro-2,2-dimethylpropyl)pyridin-2-yl)-1H-imidazole-4-carboxamide], binding in assay [1] was characterised by a dissociation constant (Kd) of 0.037 µM. In addition, in assay [2], the half-maximal inhibitory concentration (IC50) came to 0.084 µM and the inhibition at 6 µM was determined as 105%.

Molecule `CCc1nc(C(=O)NC[C@H]2CC[C@H](S(C)(=O)=O)CC2)c(C)n1-c1ncc(CC(C)(C)C(F)(F)F)cc1OC` [Example 126, 2-Ethyl-1-(3-methoxy-5-(3,3,3-trifluoro-2,2-dimethylpropyl)pyridin-2-yl)-5-methyl-N-(((1r,4r)-4-(methylsulfonyl)cyclohexyl)methyl)-1H-imidazole-4-carboxamide] displayed a dissociation constant Kd in assay [1] of 0.0086 µM. Besides, in assay [2], the half-inhibitory concentration (IC50) turned out to be 0.076 µM and the inhibition at 6 µM was determined as 100%.

The molecule `CCc1nc(C(=O)NC[C@H]2CC[C@H](S(=O)(=O)NC)CC2)c(Cl)n1-c1ncc(CC(C)(C)C(F)(F)F)cc1OC(F)F` [Example 68, 5-Chloro-1-(3-(difluoromethoxy)-5-(3,3,3-trifluoro-2,2-dimethylpropyl)pyridin-2-yl)-2-ethyl-N-(((1r,4r)-4-(N-methylsulfamoyl)cyclohexyl)methyl)-1H-imidazole-4-carboxamide] yielded an equilibrium dissociation constant (Kd) in assay [1] of 0.0037 µM. Further, the “RORγt (FL) Reporter Assay A or B, % inhibition” value in assay [2] (3 μM compound concentration (*)) is given as 103* %. Besides, the IC50 in assay [2] stood at 0.05 µM.

`Cc1nc(C(=O)NC[C@]2(O)CC[C@@H](S(C)(=O)=O)CC2)c(C#N)n1-c1ccc(CC(C)(C)C(F)(F)F)cc1OC(F)F` [Example 54, 5-Cyano-1-(2-(difluoromethoxy)-4-(3,3,3-trifluoro-2,2-dimethylpropyl)phenyl)-N-(((1s,4s)-1-hydroxy-4-(methylsulfonyl)cyclohexyl)methyl)-2-methyl-1H-imidazole-4-carboxamide] displayed a dissociation constant Kd in assay [1] of 0.011 µM. Besides, in assay [2] (setting [3]), the inhibition at 1 µM turned out to be 83%. For the same molecule, in assay [2], the IC50 was found to be 0.035 µM.

In assay [1], `CCc1nc(C(=O)NC[C@H]2CC[C@H](S(C)(=O)=O)C[C@@H]2O)c(Cl)n1-c1ncc(CC(C)(C)C(F)(F)F)cc1OC(F)F` (single isomer, unassigned) [Example 58, 5-Chloro-1-(3-(difluoromethoxy)-5-(3,3,3-trifluoro-2,2-dimethylpropyl)pyridin-2-yl)-2-ethyl-N-(((1R*,2S*,4S*)-2-hydroxy-4-(methylsulfonyl)cyclohexyl)methyl)-1H-imidazole-4-carboxamide] returned a dissociation constant (Kd) of 0.012 µM. Moreover, the half-inhibitory concentration (IC50) in assay [2] was determined as 0.16 µM. In addition, the inhibition at 3 µM in assay [2] (setting [4]) was 121%.
